In patent US8152784B2, “Method for treating or preventing steroid-induced glaucoma” (Wisconsin Alumni Research Foundation, priority 2005, dated 2012):

Assays:
[1] = test system: trabecular meshwork cells; test: CLAN formation in trabecular meshwork cells on fibronectin-coated cover slips with Src kinase inhibitor; type: cell-based, human; conditions: PP2 20 μM
Protocol: (§1) Cultured, diploid human trabecular meshwork cells obtained from trabecular meshwork explants were plated on coverslips coated with extracellular matrix materials, including poly-L-lysine (20 nM in PBS), fibronectin (100 nM in PBS), type I collagen (20 nM in PBS), type IV collagen (20 nM in PBS), vitronectin (20 nM in PBS), vascular cell adhesion molecule (VCAM-1, an α4β1 ligand; 20 nM in PBS), fibronectin III7-10 domain (an α5β1 ligand; 20 nM in PBS), fibronectin III12-14 domain (20 nM in PBS), or fibronectin IICS domains (20 nM in PBS), or activating antibodies to β1 (anti-B3B11; Chemicon Int'l, Inc.; Temecula, Calif.; 10 μg/ml), β3 (anti-AP-5; The Blood Center of Southeastern Wisconsin; Milwaukee, Wis.; 8 μg/ml), or α2β1 (anti-JBS2; Chemicon Int'l, Inc.; 6 μg/ml) integrins. In experiments using antibodies as substrates, coverslips were pre-coated with 1:100 unconjugated goat anti-mouse IgG (Jackson Immunoresearch, Inc.; West Grove, Pa.). In some instances, anti-β3 antibodies were used as soluble ligands. […]
CLAN formation was assessed by immunofluorescence microscopy. […] Anti-F-actin was detected using either Alexa 488 conjugated goat anti-rabbit IgG or Alexa 488 conjugated donkey anti-rabbit IgG. All monoclonal antibodies were detected using Alexa 546 conjugated goat anti-mouse IgG. […]

[2] = test system: human trabecular meshwork cells; test: CLAN formation in cultured human trabecular meshwork cells spread on coated coverslips, immunofluorescence microscopy; type: cell-based; conditions: adsorbed substrate on coverslip, cells spread three hours
Protocol: as §1
CLAN formation was assessed by immunofluorescence microscopy. […] Anti-F-actin was detected using either Alexa 488 conjugated goat anti-rabbit IgG or Alexa 488 conjugated donkey anti-rabbit IgG. All monoclonal antibodies were detected using Alexa 546 conjugated goat anti-mouse IgG.

Molecule	CLAN formation, % of cells ([1]; absence of soluble anti-β3, control cells 10%) [%]	CLAN formation, % of cells ([1]; presence of soluble anti-β3, control cells 30%) [%]	CLAN formation, % of the cells [2] [%]
CC(C)(C)n1nc(-c2ccc(Cl)cc2)c2c(N)ncnc21 [PP2]	0	1	
fibronectin			13
